From ChEMBL document CHEMBL1151274, “Halogenated helianane derivatives from the sponge Spirastrella hartmani” (2005)
Calls of active or inactive are those of the source. The calls are words filed in the database; no cut-off is given here.

Key:
Format in all cases: functional
[1] = test system: HT-29; assay: Cytotoxicity against human HT-29 cells by sulforhodamine B assay
[2] = test system: MDA-MB-231; assay: Cytotoxicity against human MDA-MB-231 cells by sulforhodamine B assay
[3] = test system: A549; assay: Cytotoxicity against human A549 cells by sulforhodamine B assay

SMILES | GI50 [1] [µM] | GI50 [2] [µM] | GI50 [3] [µM] | Activity [1] | Activity [2] | Activity [3]
Cc1cc2c(cc1Cl)[C@@H](C)CCCC(C)(C)O2 | 37.6 | 37.6 | 37.2 | – | – | –
Cc1cc2c(cc1Br)[C@@H](C)CCCC(C)(C)O2 | – | – | – | inactive | inactive | inactive
COc1cc2c(cc1O)CCN[C@]21CS[C@@H]2c3c(OC(C)=O)c(C)c4c(c3[C@H](COC1=O)N1[C@@H]2[C@H]2c3c(cc(C)c(OC)c3O)C[C@@H]([C@@H]1O)N2C)OCO4 [TRABECTEDIN] | 0.0197 | 0.0184 | 0.0263 | – | – | –
